Format in all cases: functional
The subject of assay [1] is Staphylococcus aureus. Briefly: Antibacterial activity against Staphylococcus aureus CGMCC1.8721.
Assay [2] deals with Staphylococcus aureus. Briefly: Antibacterial activity against methicillin-resistant Staphylococcus aureus ATCC 43300.
Assay [3] relates to Staphylococcus aureus. Briefly: Antibacterial activity against methicillin-resistant Staphylococcus aureus CGMCC1.12409.
Assay [4] deals with Staphylococcus aureus. The experiment in a line: Antibacterial activity against methicillin-resistant Staphylococcus aureus ATCC 33591.
Assay [5] deals with Staphylococcus aureus. Briefly: Bactericidal activity against Staphylococcus aureus CGMCC1.8721 by CLSI based method.
Assay [6] relates to Staphylococcus aureus. Briefly: Bactericidal activity against methicillin-resistant Staphylococcus aureus ATCC 43300 by CLSI based method.
In assay [7] the test system is Staphylococcus aureus. The experiment in a line: Bactericidal activity against methicillin-resistant Staphylococcus aureus CGMCC1.12409 by CLSI based method.
Assay [8] deals with Staphylococcus aureus. Briefly: Bactericidal activity against methicillin-resistant Staphylococcus aureus ATCC 33591 by CLSI based method.

Each structure is given as a SMILES string.

In general, MIC refers to the lowest concentration found to suppress growth. As usually defined, the MBC is the smallest concentration meeting the test's criterion for killing. Regarding `CCC[n+]1ccc2c([nH]c3ccc(OC)cc32)c1CC[C@H](C)[C@H]1CC[C@H]2[C@@H]3[C@H](O)C[C@@H]4C[C@H](O)CC[C@]4(C)[C@H]3CC[C@]12C.[Br-]`, the minimum inhibitory concentration (MIC) in the assay on Staphylococcus aureus [1] was 1 µg/mL; against Staphylococcus aureus [2], 2 µg/mL; against Staphylococcus aureus [3], 2 µg/mL; in the assay with Staphylococcus aureus [4] it was 2 µg/mL. In addition, the MBC in the assay on Staphylococcus aureus [5] came out at 2 µg/mL; against Staphylococcus aureus [6], 2 µg/mL; in the assay on Staphylococcus aureus [7] it was 4 µg/mL; with Staphylococcus aureus [8], 4 µg/mL.

`COc1ccc2[nH]c3c(CC[C@H](C)[C@H]4CC[C@H]5[C@@H]6[C@H](O)C[C@@H]7C[C@H](O)CC[C@]7(C)[C@H]6C[C@H](O)[C@]45C)[n+](Cc4ccc(F)cc4)ccc3c2c1.[Br-]`: the MIC with Staphylococcus aureus [1] was found to be 0.5 µg/mL; with Staphylococcus aureus [2], 1 µg/mL; in the assay on Staphylococcus aureus [3], 1 µg/mL; in the assay on Staphylococcus aureus [4], 2 µg/mL. In addition, the MBC against Staphylococcus aureus [5] was determined as 1 µg/mL; in the assay on Staphylococcus aureus [6], 2 µg/mL; in the assay on Staphylococcus aureus [7], 2 µg/mL; with Staphylococcus aureus [8] it was 2 µg/mL.

With `COc1ccc2[nH]c3c(CC[C@H](C)[C@H]4CC[C@H]5[C@@H]6[C@H](O)C[C@@H]7C[C@H](O)CC[C@]7(C)[C@H]6CC[C@]45C)[n+](Cc4cccc(Cl)c4)ccc3c2c1.[Br-]`, the MIC with Staphylococcus aureus [1] is 16 µg/mL; against Staphylococcus aureus [2], 16 µg/mL; with Staphylococcus aureus [3], 16 µg/mL; against Staphylococcus aureus [4], 32 µg/mL.

Take `COc1ccc2[nH]c3c(CC[C@H](C)[C@H]4CC[C@H]5[C@@H]6[C@H](O)C[C@@H]7C[C@H](O)CC[C@]7(C)[C@H]6CC[C@]45C)[n+](Cc4cccc(F)c4)ccc3c2c1.[Br-]`: the minimum inhibitory concentration (MIC) worked out at 4 µg/mL with Staphylococcus aureus [1], 8 µg/mL with Staphylococcus aureus [2], 8 µg/mL against Staphylococcus aureus [3] and 8 µg/mL against Staphylococcus aureus [4].

On to `CC[n+]1ccc2c([nH]c3ccc(OC)cc32)c1CC[C@H](C)[C@H]1CC[C@H]2[C@@H]3[C@H](O)C[C@@H]4C[C@H](O)CC[C@]4(C)[C@H]3CC[C@]12C.[Br-]`, for which the minimum inhibitory concentration (MIC) amounted to 1 µg/mL in the assay with Staphylococcus aureus [1], 2 µg/mL against Staphylococcus aureus [2], 2 µg/mL in the assay on Staphylococcus aureus [3] and 2 µg/mL against Staphylococcus aureus [4]. Moreover, the minimum bactericidal concentration (MBC) with Staphylococcus aureus [5] was determined as 2 µg/mL; in the assay on Staphylococcus aureus [6], 2 µg/mL; against Staphylococcus aureus [7] it was 4 µg/mL; against Staphylococcus aureus [8] it was 4 µg/mL.

On to `COc1ccc2[nH]c3c(CC[C@H](C)[C@H]4CC[C@H]5[C@@H]6[C@H](O)C[C@@H]7C[C@H](O)CC[C@]7(C)[C@H]6C[C@H](O)[C@]45C)[n+](Cc4ccccc4F)ccc3c2c1.[Br-]`, for which the MIC amounted to 1 µg/mL in the assay on Staphylococcus aureus [1], 1 µg/mL in the assay with Staphylococcus aureus [2], 2 µg/mL against Staphylococcus aureus [3] and 4 µg/mL against Staphylococcus aureus [4]. Also, the MBC was 2 µg/mL against Staphylococcus aureus [5], 2 µg/mL against Staphylococcus aureus [6], 4 µg/mL in the assay with Staphylococcus aureus [7] and 4 µg/mL against Staphylococcus aureus [8].

Turning to `COc1ccc2[nH]c3c(CC[C@H](C)[C@H]4CC[C@H]5[C@@H]6CC[C@@H]7C[C@H](O)CC[C@]7(C)[C@H]6CC[C@]45C)[n+](Cc4ccc(C(F)(F)F)cc4)ccc3c2c1.[Br-]`, the MIC in the assay with Staphylococcus aureus [1] was found to be 16 µg/mL; in the assay on Staphylococcus aureus [2], 16 µg/mL; in the assay with Staphylococcus aureus [3] it was 16 µg/mL; against Staphylococcus aureus [4] it was 32 µg/mL.

`COc1ccc2[nH]c3c(CC[C@H](C)[C@H]4CC[C@H]5[C@@H]6[C@H](O)C[C@@H]7C[C@H](O)CC[C@]7(C)[C@H]6C[C@H](O)[C@]45C)[n+](Cc4ccccc4C)ccc3c2c1.[Br-]`: the minimal inhibitory concentration (MIC) against Staphylococcus aureus [1] stood at 0.5 µg/mL; in the assay with Staphylococcus aureus [2], 1 µg/mL; in the assay with Staphylococcus aureus [3], 4 µg/mL; against Staphylococcus aureus [4], 4 µg/mL. Also, the MBC against Staphylococcus aureus [5] came to 1 µg/mL; against Staphylococcus aureus [6], 4 µg/mL; against Staphylococcus aureus [7], 8 µg/mL; in the assay on Staphylococcus aureus [8], 8 µg/mL.

For `COc1ccc2[nH]c3c(CC[C@H](C)[C@H]4CC[C@H]5[C@@H]6[C@H](O)C[C@@H]7C[C@H](O)CC[C@]7(C)[C@H]6C[C@H](O)[C@]45C)[n+](Cc4ccc(OC(F)(F)F)cc4)ccc3c2c1.[Br-]`, the minimum inhibitory concentration (MIC) in the assay with Staphylococcus aureus [1] was determined as 1 µg/mL; against Staphylococcus aureus [2], 1 µg/mL; against Staphylococcus aureus [3] it was 1 µg/mL; with Staphylococcus aureus [4] it was 2 µg/mL. Further, the MBC was 1 µg/mL in the assay with Staphylococcus aureus [5], 2 µg/mL in the assay with Staphylococcus aureus [6], 2 µg/mL against Staphylococcus aureus [7] and 4 µg/mL in the assay on Staphylococcus aureus [8].

As to `CCC[n+]1ccc2c([nH]c3ccc(OC)cc32)c1CC[C@H](C)[C@H]1CC[C@H]2[C@@H]3[C@H](O)C[C@@H]4C[C@H](O)CC[C@]4(C)[C@H]3C[C@H](O)[C@]12C.[Br-]`, the MIC with Staphylococcus aureus [1], with Staphylococcus aureus [2], in the assay on Staphylococcus aureus [3] and in the assay with Staphylococcus aureus [4] was 16 µg/mL each time.

Regarding `COc1ccc2[nH]c3c(CC[C@H](C)[C@H]4CC[C@H]5[C@@H]6[C@H](O)C[C@@H]7C[C@H](O)CC[C@]7(C)[C@H]6CC[C@]45C)[n+](Cc4ccccc4C)ccc3c2c1.[Br-]`, the minimal inhibitory concentration (MIC) against Staphylococcus aureus [1], against Staphylococcus aureus [2], against Staphylococcus aureus [3] and in the assay with Staphylococcus aureus [4] was 16 µg/mL each time.

For `CC[n+]1ccc2c([nH]c3ccc(OC)cc32)c1CC[C@H](C)[C@H]1CC[C@H]2[C@@H]3CC[C@@H]4C[C@H](O)CC[C@]4(C)[C@H]3CC[C@]12C.[Br-]`, the minimum inhibitory concentration (MIC) against Staphylococcus aureus [1] came out at 16 µg/mL; against Staphylococcus aureus [2], 16 µg/mL; against Staphylococcus aureus [3] it was 16 µg/mL; against Staphylococcus aureus [4], 32 µg/mL.

Turning to `COc1ccc2[nH]c3c(CC[C@H](C)[C@H]4CC[C@H]5[C@@H]6CC[C@@H]7C[C@H](O)CC[C@]7(C)[C@H]6CC[C@]45C)[n+](Cc4ccc(OC(F)(F)F)cc4)ccc3c2c1.[Br-]`, the minimum inhibitory concentration (MIC) turned out to be 16 µg/mL with Staphylococcus aureus [1], 16 µg/mL in the assay on Staphylococcus aureus [2], 16 µg/mL in the assay with Staphylococcus aureus [3] and 32 µg/mL against Staphylococcus aureus [4].

Take `COc1ccc2[nH]c3c(CC[C@H](C)[C@H]4CC[C@H]5[C@@H]6[C@H](O)C[C@@H]7C[C@H](O)CC[C@]7(C)[C@H]6CC[C@]45C)[n+](Cc4ccccc4F)ccc3c2c1.[Br-]`: the MIC with Staphylococcus aureus [1] was determined as 4 µg/mL; against Staphylococcus aureus [2], 4 µg/mL; with Staphylococcus aureus [3], 8 µg/mL; against Staphylococcus aureus [4], 8 µg/mL.

In the case of `COc1ccc2[nH]c3c(CC[C@H](C)[C@H]4CC[C@H]5[C@@H]6[C@H](O)C[C@@H]7C[C@H](O)CC[C@]7(C)[C@H]6CC[C@]45C)[n+](Cc4ccc(F)cc4)ccc3c2c1.[Br-]`, the MIC came out at 4 µg/mL in the assay on Staphylococcus aureus [1], 4 µg/mL with Staphylococcus aureus [2], 4 µg/mL with Staphylococcus aureus [3] and 8 µg/mL in the assay on Staphylococcus aureus [4].

As to `CCCC[n+]1ccc2c([nH]c3ccc(OC)cc32)c1CC[C@H](C)[C@H]1CC[C@H]2[C@@H]3[C@H](O)C[C@@H]4C[C@H](O)CC[C@]4(C)[C@H]3C[C@H](O)[C@]12C.[Br-]`, the MIC with Staphylococcus aureus [1], in the assay with Staphylococcus aureus [2], against Staphylococcus aureus [3] and with Staphylococcus aureus [4] was 16 µg/mL each time.

Turning to `COc1cccc(C[n+]2ccc3c([nH]c4ccc(OC)cc43)c2CC[C@H](C)[C@H]2CC[C@H]3[C@@H]4[C@H](O)C[C@@H]5C[C@H](O)CC[C@]5(C)[C@H]4CC[C@]23C)c1.[Br-]`, the minimal inhibitory concentration (MIC) against Staphylococcus aureus [1] worked out at 4 µg/mL; with Staphylococcus aureus [2], 8 µg/mL; against Staphylococcus aureus [3], 8 µg/mL; in the assay with Staphylococcus aureus [4], 8 µg/mL.

Take `COc1ccc2[nH]c3c(CC[C@H](C)[C@H]4CC[C@H]5[C@@H]6[C@H](O)C[C@@H]7C[C@H](O)CC[C@]7(C)[C@H]6CC[C@]45C)[n+](Cc4ccc(OC(F)(F)F)cc4)ccc3c2c1.[Br-]`: the MIC against Staphylococcus aureus [1], with Staphylococcus aureus [2], with Staphylococcus aureus [3] and in the assay on Staphylococcus aureus [4] was 16 µg/mL each time.

Take `COc1ccc2[nH]c3c(CC[C@H](C)[C@H]4CC[C@H]5[C@@H]6[C@H](O)C[C@@H]7C[C@H](O)CC[C@]7(C)[C@H]6CC[C@]45C)[n+](Cc4ccc(C)cc4)ccc3c2c1.[Br-]`: the MIC with Staphylococcus aureus [1], against Staphylococcus aureus [2], against Staphylococcus aureus [3] and against Staphylococcus aureus [4] was 16 µg/mL in each case.

With `CC[n+]1ccc2c([nH]c3ccc(OC)cc32)c1CC[C@H](C)[C@H]1CC[C@H]2[C@@H]3[C@H](O)C[C@@H]4C[C@H](O)CC[C@]4(C)[C@H]3C[C@H](O)[C@]12C.[Br-]`, the MIC in the assay on Staphylococcus aureus [1], against Staphylococcus aureus [2], with Staphylococcus aureus [3] and in the assay with Staphylococcus aureus [4] was 16 µg/mL each time.

Regarding `COc1ccc(OC)c(C[n+]2ccc3c([nH]c4ccc(OC)cc43)c2CC[C@H](C)[C@H]2CC[C@H]3[C@@H]4[C@H](O)C[C@@H]5C[C@H](O)CC[C@]5(C)[C@H]4CC[C@]23C)c1.[Br-]`, the MIC stood at 4 µg/mL against Staphylococcus aureus [1], 8 µg/mL against Staphylococcus aureus [2], 8 µg/mL with Staphylococcus aureus [3] and 8 µg/mL with Staphylococcus aureus [4].

Take `COc1ccc2[nH]c3c(CC[C@H](C)[C@H]4CC[C@H]5[C@@H]6[C@H](O)C[C@@H]7C[C@H](O)CC[C@]7(C)[C@H]6CC[C@]45C)[n+](Cc4ccc(Br)cc4)ccc3c2c1.[Br-]`: the minimal inhibitory concentration (MIC) stood at 16 µg/mL in the assay with Staphylococcus aureus [1], 16 µg/mL with Staphylococcus aureus [2], 16 µg/mL in the assay on Staphylococcus aureus [3] and 32 µg/mL in the assay on Staphylococcus aureus [4].

On to `CCCCC[n+]1ccc2c([nH]c3ccc(OC)cc32)c1CC[C@H](C)[C@H]1CC[C@H]2[C@@H]3[C@H](O)C[C@@H]4C[C@H](O)CC[C@]4(C)[C@H]3CC[C@]12C.[Br-]`, for which the minimum inhibitory concentration (MIC) in the assay on Staphylococcus aureus [1] came out at 8 µg/mL; in the assay with Staphylococcus aureus [2] it was 16 µg/mL; against Staphylococcus aureus [3], 16 µg/mL; against Staphylococcus aureus [4] it was 16 µg/mL.

(Values after ChEMBL document CHEMBL6078723, “Novel steroidal β-carboline derivatives as promising antibacterial candidates against methicillin-resistant Staphylococcus aureus” (Eur J Med Chem, 2025).)
